Results taken from patent US6984643B2, “2,5-substituted pyrimidine derivatives-CCR-3 receptor antagonists” (Roche Palo Alto LLC, priority 2002, dated 2006).

Target: T1, CCR-3 receptor (Homo sapiens, UniProt P51677)
T1 construct: expressed in transfected cells; host or cells: L1.2 (murine pre-B lymphoma line)
T1 sequence (P51677 1-355): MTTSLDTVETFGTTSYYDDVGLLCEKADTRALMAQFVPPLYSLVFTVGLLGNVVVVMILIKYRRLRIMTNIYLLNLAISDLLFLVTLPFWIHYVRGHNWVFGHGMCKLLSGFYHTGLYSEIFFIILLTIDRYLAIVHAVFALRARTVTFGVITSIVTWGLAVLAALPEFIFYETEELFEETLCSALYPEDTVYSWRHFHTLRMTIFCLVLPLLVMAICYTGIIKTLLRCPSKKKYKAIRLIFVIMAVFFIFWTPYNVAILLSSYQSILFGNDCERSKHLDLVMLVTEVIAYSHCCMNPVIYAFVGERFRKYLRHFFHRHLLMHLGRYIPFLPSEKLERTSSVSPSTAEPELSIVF
Assay: CCR-3 Receptor Binding Assay in vitro (inhibition of 125I eotaxin binding to CCR-3 L1.2 transfectant cells)
Conditions: concentration reducing 125I-eotaxin binding to CCR-3 L1.2 transfected cells by 50%; read-out: CCR-3 IC50
Experimental: The CCR-3 antagonistic activity of the compounds of the invention was determined by their ability to inhibit the binding of ^125I eotaxin to CCR-3 L1.2 transfectant cells (see Ponath, P. D. et al., J. Exp. Med., Vol. 183, 2437-2448, (1996)).
The assay was performed in Costar 96-well polypropylene round bottom plates. Test compounds were dissolved in DMSO and then diluted with binding buffer (50 mM HEPES, 1 mM CaCl2, 5 mM MgCl2, 0.5% bovine serum albumin (BSA), 0.02% sodium azide, pH 7.24) such that the final DMSO concentration was 2%. Each well was filled with 25 μl of the test solution or only buffer with DMSO (control samples) followed by the addition of 25 μl of ^125I-eotaxin (100 pmol) (NEX314, New England Nuclear, Boston, Mass.) and 1.5×10^5 of the CCR-3 L1.2 transfected cells in 25 μl binding buffer. The final reaction volume was 75 μl.
After incubating the reaction mixture for 1 h at room temperature, the reaction was terminated by filtering the reaction mixture through polyethylenimine treated Packard Unifilter GF/C filter plate (Packard, Chicago, Ill.). The filters were washed four times with ice cold wash buffer containing 10 mM HEPES and 0.5M sodium chloride (pH 7.2) and dried at 65° C. for approximately 10 min. 25 μl/well of Microscint-20™ scintillation fluid (Packard) was added and the radioactivity retained on the filters was determined by using the Packard TopCount™.
The IC50 value (concentration of test compound required to reduce ^125I-eotaxin binding to the CCR-3 L 1.2 transfected cells by 50%) for compounds in Table I of the invention was between 0.02 and 200 μM, preferably between 0.02 and 10 μM.

IC50 | SMILES
2.41 µM | O=C(CSc1ncc(-c2ccccc2)cn1)NCC1CCCN(Cc2ccc(Cl)c(C(F)(F)F)c2)C1 (centres unmarked) [Compound 48, N-[1-(4-chloro-3-trifluoromethyl-benzyl)-piperidin-3-ylmethyl]-2-(5-phenyl-pyrimidin-2-yl-sulfanyl)-acetamide]
0.403 µM | COc1ccc(-c2cnc(CCC(=O)NCC3CCCN(Cc4cccc(Cl)c4Cl)C3)nc2)cc1 (centres unmarked) [Compound 23, N-[1-(2,3-dichloro-benzyl)-piperidin-3-ylmethyl]-3-[5-(4-methoxy-phenyl)-pyrimidin-2-yl]-propionamide]
